# According to EP0028689A1, “Antimycotic agents containing acylated triazolyl-gamma-fluoropinacolyl derivatives, and their preparation” (BAYER AG, priority 1979, dated 1981):
# System: Candida
# Test: Antimicrobial in-vivo activity (oral) in mouse candidosis
# Conditions: mice infected i.v. with Candida cells; 100 mg/kg oral one hour before and seven hours after infection; survivors on day 6 p.i.
# Procedure: Versuchsbeschreibung: • Mäuse vom Typ SPF-CF1 wurden intravenös mit 1-2 x 10 logaritmisch wachsenden Candida-Zellen, die in physiologischer Kochsalzlösung suspendiert waren, infiziert. Eine Stunde vor und sieben Stunden nach der Infektion wurden die Tiere mit jeweils 100 mg/kg Körpergewicht der Präparate oral behandelt.
# +++++ = sehr gute Wirkung = ≥ 90% Überlebende am 6.Tag p.i. ++++ = gute Wirkung = ≥30% Überlebende am 6.Tag p.i. +++ = Wirkung = ≥60% Überlebende am 6.Tag p.i. ++ = schwache Wirkung = ≥40% Überlebende am 6.Tag p.i. + = Spur Wirkung k.W.= keine Wirkung
compound,measurement,value
CC(=O)OC(C(Oc1ccc(Cl)cc1C)n1cncn1)C(C)(C)C (stereo not shown),Wirkung,k.W.
